PMC6208485, “Discovery of the first macrolide antibiotic binding protein in Mycobacterium tuberculosis: a new antibiotic resistance drug target” (Protein & Cell, 2018)

Biological target: MABP-1 (Rv3197) (Mycobacterium tuberculosis, UniProt O53343)
Sequence (O53343 entry or part of it): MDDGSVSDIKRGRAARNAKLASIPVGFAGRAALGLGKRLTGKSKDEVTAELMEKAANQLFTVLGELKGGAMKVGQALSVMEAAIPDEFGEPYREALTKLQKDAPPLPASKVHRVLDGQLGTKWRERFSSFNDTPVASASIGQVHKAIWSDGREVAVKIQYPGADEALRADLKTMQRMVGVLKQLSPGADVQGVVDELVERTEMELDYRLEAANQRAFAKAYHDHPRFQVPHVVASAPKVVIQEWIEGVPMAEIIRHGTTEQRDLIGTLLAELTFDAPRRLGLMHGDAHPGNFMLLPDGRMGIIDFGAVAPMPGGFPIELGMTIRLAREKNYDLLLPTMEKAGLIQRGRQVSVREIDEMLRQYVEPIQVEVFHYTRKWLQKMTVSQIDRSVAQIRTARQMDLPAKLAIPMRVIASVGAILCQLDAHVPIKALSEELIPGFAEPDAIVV

SMILES	crystal structure of the complex
Nc1ncnc2c1ncn2[C@@H]1O[C@H](COP(=O)(O)OP(=O)(O)NP(=O)(O)O)[C@@H](O)[C@H]1O [AMPPNP]	crystal structures of MABP-1 in complex with AMPPNP and with ADP, were determined
Nc1ncnc2c1ncn2[C@@H]1O[C@H](COP(=O)(O)OP(=O)(O)O)[C@@H](O)[C@H]1O [ADP]	crystal structures of MABP-1 in complex with AMPPNP and with ADP, were determined
CC[C@H]1OC(=O)[C@H](C)[C@@H](O[C@H]2C[C@@](C)(OC)[C@@H](O)[C@H](C)O2)[C@H](C)[C@@H](O[C@@H]2O[C@H](C)C[C@H](N(C)C)[C@H]2O)[C@](C)(O)C[C@@H](C)C(=O)[C@H](C)[C@@H](O)[C@]1(C)O [erythromycin]	The electron density for erythromycin was unequivocal revealing it is located in a shallow pocket
